One data set has as its target T1, c-Abl (His-cAbl) (Homo sapiens, UniProt P00519).
T1 construct: The His-tagged kinase domain of Abl is cloned and expressed; His tag; made in house; host or cells: baculovirus/Sf9
T1 sequence (P00519 242-493 limits assumed): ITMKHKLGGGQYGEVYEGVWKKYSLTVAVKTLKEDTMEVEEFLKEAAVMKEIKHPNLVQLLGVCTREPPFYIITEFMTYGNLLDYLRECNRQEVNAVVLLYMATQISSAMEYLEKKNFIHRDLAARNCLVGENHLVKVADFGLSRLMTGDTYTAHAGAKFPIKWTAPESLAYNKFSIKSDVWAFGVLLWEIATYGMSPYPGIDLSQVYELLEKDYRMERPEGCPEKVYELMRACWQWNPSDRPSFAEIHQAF
Kind of data set: in vitro enzyme assay, wild-type Abl catalysed phosphorylation. The data set is classed as biochemical. To be noted: 16 nM His-cAbl, 10 μM ATP, 1 hour at 30° C.; read-out: IC50, inhibition of wild-type Abl catalysed phosphorylation. The procedure: (§1) Test for activity against wild-type and mutant Abl protein tyrosine kinase:
(§2) The test, an in vitro enzyme assay, is conducted as a filter binding assay as follows: The His-tagged kinase domain of Abl is cloned and expressed in the baculovirus/Sf9 system as described by Bhat et al., J. Biol. Chem. 1997; 272:16170-16175. A protein of 37 kD (Abl kinase) is purified by a two-step procedure over a Cobalt metal chelate column followed by an anion exchange column with a yield of 1-2 mg/L of Sf9 cells. The purity of the Abl kinase is >90% as judged by SDS-PAGE after Coomassie blue staining.
(§3) Based on the optimized assay conditions for the individual kinases a specific assay set-up was chosen. The assays were prepared and incubated on a liquid handling robot system using 384-well plates. To the assay plates containing 50 nL compound or control solutions, 4.5 μL of solution A consisting of the peptide substrate and ATP in assay buffer were added. The reactions were initiated by adding 4.5 μL of solution B consisting of the respective kinase in assay buffer. The reactions were incubated for 1 hour at 30° C. in a final reaction volume of 9.05 μL. Based on a generic assay buffer (50 mM HEPES pH7.5, 1 mM DTT, 0.02% Tween20, 0.02% BSA), following components were added depending on the chosen kinase: • c-Abl: 16 nM His-cAbl, 5 μM peptide substrate (FITC-Ahx-EAIYAAPFAKKK-CONH2), 10 mM MgCl2, 10 μM ATP • c-Abl-T315I: 2.4 nM His-cAbl-T315I, 5 μM peptide substrate (FITC-Ahx-EAIYAAPFAKKK-CONH2), 10 mM MgCl2, 10 μM ATP
(§4) After incubation, the kinase reactions were stopped by the addition of 16 μL of stop solution (100 mM HEPES, 5% DMSO, 0.1% Coating reagent, 10 mM EDTA, 0.015% Brij 35). Subsequently, the assay plates were transferred to a Caliper LabChip3000 reader and the unphosphorylated substrate and the phosphorylated product were separated and quantitated in a microfluidic chip.

For a further data set, the target named is Bcr-Abl (Homo sapiens, UniProt P00519). Kind of data set: Bcr-Abl phosphorylation capture ELISA in 32D-Bcr-Abl cells. The data set is classed as cell-based, murine. As to conditions: 90 min at 37° C., read-out: IC50, reduction of Bcr-Abl phosphorylation. An excerpt: 32D cl3 cells are obtained from the American Type Culture Collection (ATCC CRL11346) and Ba/F3 cells are obtained from the German Collection of Microorganisms and Cell Cultures (DSMZ, Braunschweig and DSMZ No. ACC 300) Palacios et al., Nature, 1984; 309:126 and Palacios et al., Cell, 1985:41:72.
Oncogene 1996; 12: 839-46; and Okuda K, Golub T R, Gilliland D G, Griffin J D. p210BCR-ABL, p190BCR-ABL, and TEL/ABL activate similar signal transduction pathways in hematopoietic cell lines. Oncogene 1996; 13:1147-52.)
The cells express the fusion Bcr-Abl protein with a constitutively active Abl kinase and proliferate growth factor independent. The cells are expanded in RPMI 1640 (AMIMED), 10% fetal calf serum (FCS), 2 mM glutamine (Gibco) (“complete medium”), and a working stock is prepared by freezing aliquots of 2×10^6 cells per vial in freezing medium (95% FCS, 5% DMSO (SIGMA)). After thawing, the cells are used during maximally 10-12 passages for the experiments. The antibody anti-Abl SH3 domain cat. #06-466 from Upstate Biotechnology is used for the ELISA. For detection of Bcr-Abl phosphorylation, the anti-phosphotyrosine antibody Ab PY20, labelled with alkaline phosphatase ([…]) from ZYMED (cat. #03-7722) is used. […]
(In general: In an ELISA, binding on a coated surface is turned into a signal by an enzyme label.)

The target of data set [1] is T2, c-Abl-T315I (His-cAbl-T315I) (Homo sapiens, UniProt P00519, T315I).
T2 construct: The His-tagged kinase domain of Abl is cloned and expressed; His tag; made in house; host or cells: baculovirus/Sf9
T2 sequence (P00519 242-493 T315I limits assumed): T1 sequence (P00519 242-493 limits assumed) with T74I
Kind of data set: in vitro enzyme assay, T315I mutant Abl catalysed phosphorylation. The data set is classed as biochemical. As to conditions: 2.4 nM His-cAbl-T315I, 10 μM ATP, 1 hour at 30° C.; read-out: IC50, inhibition of T315I mutant Abl catalysed phosphorylation. The procedure: as §1, §2, §3, §4

IC50 and melting point data for eleven compounds are collected here from US8217045B2, “Organic compounds” (Novartis AG, priority 2007, dated 2012).

The structures appear in SMILES notation. Substitutions are numbered along the chain they refer to. Bounds are passed on as bounds.

The IC50 is the concentration at which inhibition is half-maximal. With `CC(=O)Nc1cc(Oc2ccc3c(C(=O)Nc4cc(-n5cnc(C)c5)cc(C(F)(F)F)c4)cccc3c2)ccn1` [Example 1, 6-[[2-(Acetylamino)-pyridin-4-yl]oxy]-naphthalene-1-carboxylic acid [3-(4-methyl-1H-imidazol-1-yl)-5-(trifluoromethylphenyl)]amide], the IC50 on c-Abl (His-cAbl) was less than 5 nM. In general, melting point refers to the temperature, or range, at which the solid turns liquid. Regarding `Cc1cn(-c2cc(NC(=O)c3cccc4cc(Oc5ccnc(NC(=O)C6CC6)c5)ccc34)cc(C(F)(F)F)c2)cn1` [Example 2, 6-[[2-(Cyclopropylcarbonyl)amino-pyridin-4-yl]oxy]-naphthalene-1-carboxylic acid [3-(4-methyl-1H-imidazol-1-yl)-5-(trifluoromethylphenyl)]amide], the melting point is 242 to 244 °C. At Bcr-Abl, the IC50 lay within 21 to 179 nM. `Cc1cn(-c2cc(NC(=O)c3cccc4cc(Oc5ccnc(NC(=O)N(C)C)c5)ccc34)cc(C(F)(F)F)c2)cn1` [Example 5]: the melting point is greater than 138 °C. The IC50 at c-Abl (His-cAbl) is less than 5 nM. The compound `Cc1cn(-c2cc(NC(=O)c3cccc4cc(Oc5ccnc(Nc6ccccn6)c5)ccc34)cc(C(F)(F)F)c2)cn1` [Example 6, 6-[[2-[(2-Pyridinyl)amino]-4-pyridinyl]oxy]-naphthalene-1-carboxylic acid [3-(4-methyl-1H-imidazol-1-yl)-5-(trifluoromethylphenyl)]amide] had a melting point of 204 to 206 °C. For the same compound, the IC50 in data set [1] lay in the range of 47 to 49 nM. For `CC(=O)Nc1cc(Oc2ccc3c(C(=O)Nc4ccc(CN5CCN(C)CC5)c(C(F)(F)F)c4)cccc3c2)ccn1` [Example 7, 6-[[2-(Acetylamino)-pyridin-4-yl]oxy]-naphthalene-1-carboxylic acid [4-[(4-methyl-1-piperazinyl)methyl]-3-trifluoromethyl-phenyl]amide], the melting point lay within 112 to 114 °C. For the same compound, the concentration for half-maximal inhibition (IC50) on c-Abl (His-cAbl) was less than 5 nM. As for `CN1CCN(Cc2ccc(NC(=O)c3cccc4cc(Oc5ccnc(NC(=O)C6CC6)c5)ccc34)cc2C(F)(F)F)CC1` [Example 8, 6-[[2-(Cyclopropylcarbonyl)amino-pyridin-4-yl]oxy]-naphthalene-1-carboxylic acid [4-[(4-methyl-1-piperazinyl)methyl]-3-trifluoromethyl-phenyl]amide], at c-Abl (His-cAbl), the IC50 was less than 5 nM. Consider `O=C(Nc1cc(N2CCNCC2)cc(C(F)(F)F)c1)c1cccc2cc(Oc3ccnc(NC(=O)C4CC4)c3)ccc12` [Example 10, 6-[[2-(Cyclopropanecarbonyl-amino)-pyridin-4-yl]oxy]-naphthalene-1-carboxylic acid (3-piperazin-1-yl-5-trifluoromethyl-phenyl)-amide], for which the IC50 on c-Abl (His-cAbl) is less than 5 nM; at Bcr-Abl, 101 to 370 nM.

As to `CN1C2CCCC1CN(Cc1ccc(NC(=O)c3cccc4cc(Oc5ccnc(NC(=O)C6CC6)c5)ccc34)cc1C(F)(F)F)C2` [Example 11], the IC50 on c-Abl (His-cAbl) is less than 5 nM. Consider `Cc1ncc(-c2cc(NC(=O)c3cccc4cc(Oc5ccnc(NC(=O)C6CC6)c5)ccc34)cc(C(F)(F)F)c2)[nH]1` [Example 15], for which the 50% inhibitory concentration (IC50) in data set [1] lay within 36 to 57 nM. For the compound `CC(=O)Nc1cc(Oc2ccc3c(C(=O)Nc4cc(-n5cnc(C)c5)cc(C(F)(F)F)c4)cccc3c2)ncn1` [Example 19, 6-[[6-(Acetylamino)-pyrimidin-4-yl]oxy]-naphthalene-1-carboxylic acid [3-(4-methyl-imidazol-1-yl)-5-trifluoromethyl-phenyl]-amide], the IC50 on c-Abl (His-cAbl) was less than 5 nM. With `Cc1cn(-c2cc(NC(=O)c3cccc4cc(Oc5ccnc(NC(=O)[C@@H]6CCCN6)c5)ccc34)cc(C(F)(F)F)c2)cn1` [Example 25, 6-[[2-[(2S)-2-Pyrrolidinecarbonyl]amino-pyridin-4-yl]oxy]-naphthalene-1-carboxylic acid [3-(4-methyl-1H-imidazol-1-yl)-5-(trifluoromethylphenyl)]amide], the IC50 in data set [1] fell in the range of 65 to 68 nM.
